From paper PMC4872784 (Oncotarget, 2016) come the findings set out here.

Values joined by “and” are separate entries in the source; they are usually repeats but may differ in a detail not shown here. Equal values may be shown once. Where a name gives a salt, the structure may show the parent alone.

Data set [1] has as its system MOLM14 cells. Briefly: alamarBlue cytotoxicity assay, 48h. It counts as cell-based, human. The note with it: MOLM14 (AML), 48h, RPMI + 10% FBS. As to the method:
(§1) Following subtraction of background fluorescence from all wells, fluorescence of drug-treated cells was normalized to that of vehicle (<0.5% DMSO)-treated cells to determine the effect of each drug concentration on viability. Each cell line was tested in triplicate and in at least three independent experiments. IC50 (concentration that inhibits cell growth by 50%) values were calculated using CompuSyn software (ComboSyn, Paramus, NJ). […] In addition several cell lines were initially cultured and tested in alternative media (Supplementary Table S2). […] Colony counts were normalized to vehicle-treated controls (100%). Three independent experiments were performed.
(§2) In most experiments, cytotoxicity was assessed using alamarBlue assays (Life Technologies, Grand Island, NY). In experiments using NAC and DFO, which can interfere with alamarBlue assay performance, Trypan Blue dye exclusion was used instead. […]
(§3) experiments performed in triplicate. […] Age refers to age […]
(§4) at the time of leukemia diagnosis of the patient from whom the cell line was derived. (–) Indicates information unavailable.
(§5) *Cell lines with FLT3/ITD mutations.
(§6) *The MV-4–11 cell line was derived from a patient with a biphenotypic B-myelomonocytic leukemia; K562 was derived […]
(§7) 1A. p53 status was obtained from http://cancer.sanger.ac.uk/cell_lines/cbrowse/all and http://p53.free.fr/Database/Cancer_ cell_lines/Leukemia_cancer. html. WT: wild type. Mut: mutant. SM: single mutation. DM: double mutation. MM: multiple mutations. Fs: Frameshift mutation. Null: protein expression undetectable. […]
(§8) measured via alamarBlue assay. […]
Background: The colour change of resazurin is a common sign of viable cells or microbes.

For data set [2], the system named is KOPN8 cells. Put plainly: alamarBlue cytotoxicity assay, 48h. The note with it: RPMI + 10% FBS. In kind it is cell-based, human. As to the method:
as §1, §2, §3, §4, §5, §6, §7, §8

Data set [3] has as its system MOLM14 cells. Put plainly: viable cell counts via Trypan Blue dye exclusion, 48h. It counts as cell-based, human. The note with it: read-out: approximate 48h IC50. As to the method:
A. Quantification of the percentage of early apoptotic cells (Annexin-V+/7-AAD-) from three independent experiments in which cells were stained for apoptosis with 7-AAD and Annexin-V then analyzed by flow cytometry. […] C. […] 16h after addition of drugs, cells were washed and analyzed by flow cytometry for CM-H2DCFDA fluorescence (indicating total ROS generation) in the FL1 channel. Mean Fluorescence Intensity (MFI) was normalized to that of vehicle control (0.5% DMSO) with no pretreatment. […] Viable cell counts, obtained via Trypan Blue dye exclusion, were normalized to vehicle (0.02% DMSO)-treated samples +/– pretreatment.
In most experiments, cytotoxicity was assessed using alamarBlue assays (Life Technologies, Grand Island, NY). In experiments using NAC and DFO, which can interfere with alamarBlue assay performance, Trypan Blue dye exclusion was used instead.

The nature of data set [4]: in vivo. Particulars: male, NSG, mouse, plasma, po, 200 mg/kg.
Procedure: (§9) Plasma samples were obtained from 3-6 male NSG mice per time point (15min-24h after drug administration). Symbols represent concentrations of compound by LC/MS-MS detection.
(§10) Blood samples were collected via retro-orbital bleeding into EDTA-coated tubes. PK samples were centrifuged to obtain plasma, which was stored frozen (−80°C) until liquid chromatography/triple quadrupole mass spectrometry (LC/MS-MS) analysis.
(§11) were separated using an Agilent Zorbax Eclipse C18 column (2.1 mm x 50 mm, 3.5 μm) using gradient mobile phase
(§12) (acetonitrile and 2 mM ammonium acetate both containing 0.1% formic acid) and a gradient flow rate (0.2 to 0.4 ml/
(§13) min). An AB Sciex 5500 triple quadrupole mass spectrometer was used for detection. The m/z transitions used were
(§14) The calibration range was 5–1,000 ng/mL for all analytes. Mean drug concentrations were calculated at each time point. PK parameters (plasma
(§15) half-life [T1/2]; time to reach Cmax [Tmax]; maximum plasma concentration [Cmax]; area under the plasma concentration-
(§16) time curve [AUC] from time zero to the last measurable concentration [AUClast]; AUC from time zero to infinity [i.e.,
(§17) the AUClast + the extrapolated AUC from AUClast to infinity; AUC0–∞]; apparent volume of distribution [Vz/F]; body
(§18) weight-adjusted apparent clearance [CL/F/kg]) were calculated from mean drug concentration-time data using non-
(§19) the r2 of the elimination rate constant (λ ) was < 0.9, the AUC , CL/F, and T were not reported (NR).
Data set [5] can be described thus: plasma pharmacokinetics after single oral dose. Particulars: single oral dose AS 200 mg/kg, NSG mice.
Procedure: as §9, §10, §11, §12, §13, §14, §15, §16, §17, §18, §19
Where [6] appears, read: Homo sapiens, KOPN-8, KOPN8 (B-ALL).

For orientation: IC50 means the point on the concentration scale where inhibition reaches its midpoint. Turning to `Nc1ccn([C@@H]2O[C@H](CO)[C@@H](O)[C@@H]2O)c(=O)n1` [ARA, cytosine arabinoside], the IC50 in data set [1] turned out to be 286 nM; in data set [2] (KOPN8 (B-ALL)), 73 nM.
In the case of `CC(=O)N(O)CCCCCNC(=O)CCC(=O)N(O)CCCCCNC(=O)CCC(=O)N(O)CCCCCN` [DFO, deferoxamine mesylate], in data set [3] (Homo sapiens, MOLM-14, 48 h), the IC50 was roughly 11000 nM.
The term AUC(0-inf) denotes total exposure, with the tail of the curve extrapolated. High values mean high exposure, low ones low exposure. Usually AUC(0-t) stands for the area under the concentration-time curve up to a stated or last time point. For orientation: CL/F means the apparent clearance, not corrected for the fraction that reaches the circulation. What is called Cmax is the peak of the concentration-time curve. By Tmax is commonly meant the time from dosing to the highest level. One may read the Vd/F as the apparent distribution volume after extravascular dosing. As a reminder, the half-life is the time in which the quantity being followed falls by half. `C[C@H]1[C@@H](O)O[C@@H]2O[C@@]3(C)CC[C@H]4[C@H](C)CC[C@@H]1[C@@]24OO3` [DHA, dihydroartemisinin]: in data set [4], the AUC(0-inf) was 1300 ng·h/mL; the AUC(0-t) amounted to 1290 ng·h/mL; the CL/F is 2050 mL/min/kg; the Cmax is 1630 ng/mL and 5.74 µM. Moreover, in data set [4], the Tmax was 15 min, the Vd/F is 103 L/kg and the half-life was 34.8 min. The T1/2 in data set [5] (plasma) is less than 60 min. For the same molecule, in data set [5], the “time by which plasma declined to undetectable levels” value is reported as no more than 4 h. The IC50 in data set [1] (Homo sapiens, MOLM-14) turned out to be 1020 nM. In addition, the half-inhibitory concentration (IC50) in data set [2] (setting [6]) was 351 nM.
Turning to `COc1cccc2c1C(=O)c1c(O)c3c(c(O)c1C2=O)C[C@@](O)(C(=O)CO)C[C@@H]3O[C@H]1C[C@H](N)[C@H](O)[C@H](C)O1` [DOX, doxorubicin], the IC50 in data set [1] (Homo sapiens, MOLM-14) was 79 nM; in data set [2] (setting [6]) it was 30 nM.
Turning to `COc1cc([C@@H]2c3cc4c(cc3[C@@H](O[C@@H]3O[C@@H]5CO[C@@H](C)O[C@H]5[C@H](O)[C@H]3O)[C@H]3COC(=O)[C@H]23)OCO4)cc(OC)c1O` [ETO, etoposide], the IC50 in data set [1] (Homo sapiens, MOLM-14) stood at 242 nM; in data set [2] (setting [6]), 150 nM.
For `C[C@]12O[C@H](C[C@]1(O)CO)n1c3ccccc3c3c4c(c5c6ccccc6n2c5c31)CNC4=O` [LES, lestaurtinib], the IC50 worked out at 3 nM in data set [1] (Homo sapiens, MOLM-14) and 45 nM in data set [2] (setting [6]).
For `CO[C@@H]1[C@H](N(C)C(=O)c2ccccc2)C[C@H]2O[C@]1(C)n1c3ccccc3c3c4c(c5c6ccccc6n2c5c31)C(=O)NC4` [MID, midostaurin], in data set [2] (setting [6]), the IC50 came to 210 nM.
For `CC(=O)N[C@@H](CS)C(=O)O` [NAC, N-acetyl cysteine], the IC50 in data set [3] (MOLM14, preliminary experiments) was roughly 25000 nM.
In the case of `CNC(=O)c1cc(Oc2ccc(NC(=O)Nc3ccc(Cl)c(C(F)(F)F)c3)cc2)ccn1` [SOR, sorafenib], the IC50 in data set [1] (Homo sapiens, MOLM-14) amounted to 4 nM; in data set [2] (setting [6]), 4200 nM.
